# In patent publication US20260022142A1, “MACROCYCLIC IMMUNOMODULATORS” (Bristol-Myers Squibb Company, priority 2022, published 2026):
# Bridge positions count the residues as written; N and C are the ends. Square brackets hold non-standard residues; d marks the D form. Peptide text beside a SMILES is read from it. * marks the point of attachment. ξ: configuration not given here. Phe(4-COOH) = N[C@@H](Cc1ccc(C(=O)O)cc1)C(=O)O; Bip = N[C@@H](Cc1ccc(-c2ccccc2)cc1)C(=O)O; Phe(3-Me) = Cc1cccc(C[C@H](N)C(=O)O)c1; Val(3-OH) = CC(C)(O)[C@H](N)C(=O)O; 4Pal = N[C@@H](Cc1ccncc1)C(=O)O; Cha = N[C@@H](CC1CCCCC1)C(=O)O; Cit = NC(=O)NCCC[C@H](N)C(=O)O; dCha = N[C@H](CC1CCCCC1)C(=O)O; Thr(3ξ) = CC(O)[C@H](N)C(=O)O; hSer = N[C@@H](CCO)C(=O)O; Carboxymethyl = O=C(O)C*; Orn = NCCC[C@H](N)C(=O)O; Aun = NCCCCCCCCCCC(=O)O; Dab = NCC[C@H](N)C(=O)O; Dap = NC[C@H](N)C(=O)O; AEEA = NCCOCCOCC(=O)O
# Target: T1, PD-1/PD-L1 interaction (PE-labeled human PD-L1-Ig binding to Jurkat cell line over-expressing human PD-1) (Homo sapiens, UniProt Q15116)
# T1 construct: expressed in transfected cells; host or cells: Jurkat
# T1 sequence (Q15116 25-288): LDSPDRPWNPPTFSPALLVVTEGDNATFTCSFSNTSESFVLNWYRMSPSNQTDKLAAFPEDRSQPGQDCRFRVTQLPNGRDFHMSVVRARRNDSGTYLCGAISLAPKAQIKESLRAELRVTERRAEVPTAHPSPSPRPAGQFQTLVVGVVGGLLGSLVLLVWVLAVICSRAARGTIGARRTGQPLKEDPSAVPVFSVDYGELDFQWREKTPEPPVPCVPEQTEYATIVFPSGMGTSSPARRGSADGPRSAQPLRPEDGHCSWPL
# Assay: Jurkat-PD-1 Cell Binding High-Content Screening Assay (CBA)
# Type: cell-based
# Conditions: Jurkat cell line over-expressing human PD-1; PE-labeled PD-L1-Ig 20 nM final; read-out: Jurkat hPD1-PDL1 IC50
# Procedure: Example 2: Jurkat-PD-1 Cell Binding High-Content Screening Assay (CBA)
# Phycoerythrin (PE) was covalently linked to the Ig epitope tag of human PD-L1-Ig and fluorescently-labeled PD-L1-Ig was used for binding studies with a Jurkat cell line over-expressing human PD-1 (Jurkat-PD-1). Briefly, 8×10^3 Jurkat-hPD-1 cells were seeded into 384 well plates in 20 μl of DMEM supplemented with 10% fetal calf serum. 100 nl of compound was added to cells followed by incubation at 37° C. for 2 h. Then, 5 μl of PE-labeled PD-L1-Ig (20 nM final), diluted in DMEM supplemented with 10% fetal calf serum. After 1 hour incubation, cells were fixed with 4% paraformaldehyde in dPBS containing 10 μg/ml Hoechst 33342 and then washed 3× in 100 μl dPBS. Data was collected and processed using a Cell Insight NXT High Content Imager and associated software.
row,Structure (SMILES),IC50 [nM]
1,CC(C)C[C@H]1NC(=O)[C@H](CCCN)NC(=O)[C@H](C(C)C)NC(=O)[C@H](Cc2ccc(-c3ccccc3)cc2)NC(=O)[C@H](C(C)C)NC(=O)[C@H](Cc2c[nH]c3ccccc23)NC(=O)[C@H](CC(=O)O)NC(=O)[C@H](Cc2ccc(OCC(=O)O)cc2)NC(=O)[C@H](Cc2ccncc2)NC(=O)CSC[C@@H](C(=O)NCC(=O)NCCOCCOCC(=O)N[C@@H](CCCN)C(=O)NCCCCCCCCCCC(=O)O)NC(=O)[C@H](CCCNC(N)=O)NC(=O)[C@H](C(C)C)NC(=O)[C@H](CC2CCCCC2)NC(=O)[C@H](CCN)NC1=O [Compound 3235] ({CH2CO}-[4Pal]Y(Carboxymethyl)DWV[Bip]V[Orn][dL][Dab][Cha]V[Cit]CG[AEEA][Orn][Aun]-OH; thioether N-14),5.7
2,CC(C)[C@@H]1NC(=O)[C@H](CC2CCCCC2)NC(=O)[C@H](CCN)NC(=O)[C@@H](CC2CCCCC2)NC(=O)[C@H](CCCN)NC(=O)[C@H](C(C)C)NC(=O)[C@H](Cc2ccc(-c3ccccc3)cc2)NC(=O)[C@H](C(C)C)NC(=O)[C@H](Cc2c[nH]c3ccccc23)NC(=O)[C@H](CC(=O)O)NC(=O)[C@H](Cc2ccc(OCC(=O)O)cc2)NC(=O)[C@H](CN)NC(=O)CSC[C@@H](C(=O)NCCOCCOCC(=O)N[C@@H](CCN)C(=O)NCCCCCCCCCCC(=O)O)NC(=O)[C@H](CCCCN)NC1=O [Compound 2673] ({CH2CO}-[Dap]Y(Carboxymethyl)DWV[Bip]V[Orn][dCha][Dab][Cha]VKC[AEEA][Dab][Aun]-OH; thioether N-14),22.5
3,Cc1cccc(C[C@@H]2NC(=O)[C@H](CC(=O)O)NC(=O)[C@H](Cc3ccc(OCC(=O)O)cc3)NC(=O)[C@H](CCC(N)=O)NC(=O)CSC[C@@H](C(=O)N[C@@H](CCN)C(=O)NCCCCCCCCCCC(=O)O)NC(=O)[C@H]([C@@H](C)O)NC(=O)[C@H](C(C)C)NC(=O)[C@H](CC3CCCCC3)NC(=O)[C@H](CCN)NC(=O)[C@@H](CC(C)C)NC(=O)[C@H](CCCN)NC(=O)[C@H](CCCNC(N)=O)NC(=O)[C@H](Cc3ccc(-c4ccccc4)cc3)NC(=O)[C@H](C(C)C)NC2=O)c1 [Compound 2830] ({CH2CO}-QY(Carboxymethyl)D[Phe(3-Me)]V[Bip][Cit][Orn][dL][Dab][Cha]VTC[Dab][Aun]-OH; thioether N-14),26
4,Cc1cccc(C[C@@H]2NC(=O)[C@H](CC(=O)O)NC(=O)[C@H](Cc3ccc(OCC(=O)O)cc3)NC(=O)[C@H](CN)NC(=O)CSC[C@@H](C(=O)N[C@@H](CCN)C(=O)NCCCCCCCCCCC(=O)O)NC(=O)[C@H](CCCN)NC(=O)[C@H](C(C)C)NC(=O)[C@H](CC3CCCCC3)NC(=O)[C@H](CCN)NC(=O)[C@@H](CC(C)C)NC(=O)[C@H](CCCN)NC(=O)[C@H](Cc3ccc(O)cc3)NC(=O)[C@H](Cc3ccc(-c4ccccc4)cc3)NC(=O)[C@H](C(C)C)NC2=O)c1 [Compound 2841] ({CH2CO}-[Dap]Y(Carboxymethyl)D[Phe(3-Me)]V[Bip]Y[Orn][dL][Dab][Cha]V[Orn]C[Dab][Aun]-OH; thioether N-14),12.3
5,Cc1cccc(C[C@@H]2NC(=O)[C@H](CC(=O)O)NC(=O)[C@H](Cc3ccc(OCC(=O)O)cc3)NC(=O)[C@H](CCCNC(=N)N)NC(=O)CSC[C@@H](C(=O)N[C@@H](CCCCN)C(=O)NCCCCCCCCCCC(=O)O)NC(=O)[C@H](CCCN)NC(=O)[C@H](C(C)C)NC(=O)[C@H](CC3CCCCC3)NC(=O)[C@H](CCN)NC(=O)[C@@H](CC(C)C)NC(=O)[C@H](CCN)NC(=O)[C@H](CCCNC(N)=O)NC(=O)[C@H](Cc3ccc(-c4ccccc4)cc3)NC(=O)[C@H](C(C)C)NC2=O)c1 [Compound 2805] ({CH2CO}-RY(Carboxymethyl)D[Phe(3-Me)]V[Bip][Cit][Dab][dL][Dab][Cha]V[Orn]CK[Aun]-OH; thioether N-14),9.9
6,Cc1cccc(C[C@@H]2NC(=O)[C@H](CC(=O)O)NC(=O)[C@H](Cc3ccc(OCC(=O)O)cc3)NC(=O)[C@H](C(C)O)NC(=O)CSC[C@@H](C(=O)N[C@@H](CCN)C(=O)NCCCCCCCCCCC(=O)O)NC(=O)[C@H](CCO)NC(=O)[C@H](C(C)C)NC(=O)[C@H](CC3CCCCC3)NC(=O)[C@H](CCN)NC(=O)[C@@H](CC(C)C)NC(=O)[C@H](CCCN)NC(=O)[C@H](Cc3ccc(OCC(=O)O)cc3)NC(=O)[C@H](Cc3ccc(-c4ccccc4)cc3)NC(=O)[C@H](Cc3ccc(C(=O)O)cc3)NC2=O)c1 (stereo partly drawn) [Compound 3483] ({CH2CO}-[Thr(3ξ)]Y(Carboxymethyl)D[Phe(3-Me)][Phe(4-COOH)][Bip]Y(Carboxymethyl)[Orn][dL][Dab][Cha]V[hSer]C[Dab][Aun]-OH; thioether N-14),9.5

# The next lines start with the values.
row,IC50 [nM],Structure (SMILES)
1,39.7,CC(=O)NCCCC[C@@H]1NC(=O)[C@H](Cc2ccc(-c3ccccc3)cc2)NC(=O)[C@H](Cc2ccc(O)cc2)NC(=O)[C@H](Cc2cccc(C)c2)NC(=O)[C@H](CC(=O)O)NC(=O)[C@H](Cc2ccc(OCC(=O)O)cc2)NC(=O)[C@H](CCCNC(=N)N)NC(=O)CSC[C@@H](C(=O)N[C@@H](CCN)C(=O)NCCCCCCCCCCC(=O)O)NC(=O)[C@H](C(C)O)NC(=O)[C@H](CO)NC(=O)[C@H](CC2CCCCC2)NC(=O)[C@H](CCN)NC(=O)[C@@H](CC(C)C)NC(=O)[C@H](CCCN)NC1=O (stereo partly drawn) [Compound 3507] ({CH2CO}-RY(Carboxymethyl)D[Phe(3-Me)]Y[Bip]K(Ac)[Orn][dL][Dab][Cha]S[Thr(3ξ)]C[Dab][Aun]-OH; thioether N-14)
2,314,Cc1cccc(C[C@@H]2NC(=O)[C@H](CC(=O)O)NC(=O)[C@H](Cc3ccc(OCC(=O)O)cc3)NC(=O)[C@H](Cc3ccncc3)NC(=O)CSC[C@@H](C(=O)N[C@@H](CCN)C(=O)NCCOCCOCC(=O)NCCOCCOCC(=O)NCCCCCCCCCCC(=O)O)NC(=O)[C@H](CCCN)NC(=O)[C@H](C(C)(C)O)NC(=O)[C@H](CC3CCCCC3)NC(=O)[C@H](CCN)NC(=O)[C@@H](CC(C)C)NC(=O)[C@H](CCCN)NC(=O)[C@H](Cc3ccc(OCC(=O)O)cc3)NC(=O)[C@H](Cc3ccc(-c4ccccc4)cc3)NC(=O)[C@H](Cc3ccc(OCC(=O)O)cc3)NC2=O)c1 [Compound 3755] ({CH2CO}-[4Pal]Y(Carboxymethyl)D[Phe(3-Me)]Y(Carboxymethyl)[Bip]Y(Carboxymethyl)[Orn][dL][Dab][Cha][Val(3-OH)][Orn]C[Dab][AEEA][AEEA][Aun]-OH; thioether N-14)
3,27.6,CC(C)C[C@@H]1NC(=O)[C@H](Cc2c[nH]c3ccccc23)NC(=O)[C@H](CC(=O)O)NC(=O)[C@H](Cc2ccc(OCC(=O)O)cc2)NC(=O)[C@H](C(C)O)NC(=O)CSC[C@@H](C(=O)N[C@@H](CCN)C(=O)NCCCCCCCCCCC(=O)O)NC(=O)[C@H](CCCN)NC(=O)[C@H](C(C)O)NC(=O)[C@H](CC2CCCCC2)NC(=O)[C@H](CCN)NC(=O)[C@@H](CC(C)C)NC(=O)[C@H](CCCN)NC(=O)[C@H](C(C)C)NC(=O)[C@H](Cc2ccc(-c3ccccc3)cc2)NC1=O (stereo partly drawn) [Compound 3686] ({CH2CO}-[Thr(3ξ)]Y(Carboxymethyl)DWL[Bip]V[Orn][dL][Dab][Cha][Thr(3ξ)][Orn]C[Dab][Aun]-OH; thioether N-14)
